The values that follow come from patent US11192849B2, “Compounds, compositions, and methods for modulating ferroptosis and treating excitotoxic disorders” (THE TRUSTEES OF COLUMBIA UNIVERSITY IN THE CITY OF NEW YORK, priority 2013, dated 2021).

Data set [1] can be described thus: Metabolic stability in mouse liver microsomes. Format: in vitro ADME. The conditions noted are these: Compound Conc = 0.5 μM. The method, then:
Test compounds (0.5 μM) were incubated at 37° C. for up to 45 minutes in 50 mM of potassium phosphate buffer (pH 7.4) containing mouse liver microsomal protein (0.5 mg/mL) and an NADPH generating system (0.34 mg/mL β-nicotinamide adenine dinucleotide phosphate (NADP), 1.56 mg/mL glucose-6-phosphate, 1.2 units/mL glucose-6-phosphate dehydrogenase). At 0, 5, 15, 30, and 45 minute intervals, an aliquot was taken and quenched with acetonitrile (ACN) containing internal standard. No-cofactor controls at 45 minutes were prepared. Following completion of the experiment, the samples were analyzed by LC-MS/MS.
The half-life (t1/2) was calculated using the following equation: t1/2=0.693/k Where, k is the elimination rate constant of test compounds obtained by fitting the data to the equation: C=initial×exp(−k×t) Intrinsic clearance (Clint) is calculated as liver clearance from the half-life using the following equation: […]
0.5 mg protein/mL incubation
Ethoxycoumarin was used as a control.
In general terms: Microsomes from liver hold many membrane-bound enzymes, among them those of drug oxidation.

In the next data set the test system is HT-1080 cells. The data set can be described thus: Inhibition of erastin (10 μM)-induced death in HT-1080 cells (Alamar Blue). The class given is cell-based, human. The conditions noted are these: for EC50: read-out: EC50; for prevention of erastin-induced death: erastin-treated HT-1080 cells. The method, then: Cell viability was typically assessed in 384-well format by Alamar Blue (Invitrogen) fluorescence (ex/em 530/590) measured on a Victor3 platereader (Perkin Elmer, Waltham, Mass.). In some experiments, Trypan Blue dye exclusion counting was performed using an automated cell counter (ViCell, Beckman-Coulter Inc., Brea, Calif.). Cell viability in test conditions is reported as a percentage relative to the negative control treatment.
The ability of various compounds disclosed herein to inhibit death in erastin (10 μM)-treated HT-1080 cells were tested. Cell viability was assessed by Alamar Blue. EC50 values (nM) were computed from dose response curves.
HT-1080 cells are cultured in DMEM containing 10% fetal bovine serum, 1% supplemented non-essential amino acids and 1% pen/strep mixture (Gibco) and maintained in a humidified environment at 37° C. with 5% CO2 in a tissue culture incubator. 1,000 HT-1080 cells are seeded per well in duplicate 384-well plates (Corning) using a BioMek FX liquid handling robot (Beckman Coulter). The next day, the medium is replaced with 36 μL of medium containing 10 μM erastin with 4 μL of medium containing a dilution series (previously prepared) of DMSO, Fer-1 (positive control) or Fer-1 analogs. 24 hours later, 10 μL Alamar Blue (Invitrogen) cell viability solution is added to the growth media to a final concentration of 10%. Cells are incubated a further 6 hours and then the Alamar Blue fluorescence intensity recorded using a Victor 3 platereader (PerkinElmer)(ex/em 530/590). All experiments are performed at least twice and the background (no cells)-subtracted Alamar Blue values for each combination are averaged between replicates.

Where [2] appears, read: Homo sapiens, HT-1080, SI Table 6.
Where [3] appears, read: Homo sapiens, HT-1080, SI Table 5.
[4] abbreviates: Homo sapiens, HT-1080, SI Table 7.
The mark [5] stands for this setting: SI Table 3, cyclic amines bearing heteroatoms.
The mark [6] stands for this setting: Homo sapiens, HT-1080, SI Table 4, various R3 substitutions.
Where [7] appears, read: Homo sapiens, HT-1080, SI Table 3, cyclic amines bearing heteroatoms.
The mark [8] stands for this setting: SI Table 2, analogs with various hydrophobic moieties.
Where [9] appears, read: Homo sapiens, HT-1080, Table 1 (Example 10), erastin (10 μM)-treated HT-1080 cells.
[10] abbreviates: Homo sapiens, HT-1080, SI Table 2, analogs with various hydrophobic moieties.

Like-named read-outs stand apart in the source and are kept apart here.

`CCOc1ccc2ccc(=O)oc2c1` [Ethoxycoumarin, reference compound]: in data set [1] (Mouse), the “Elimination rate constant (k)” value is recorded as 0.2661 and the “Intrinsic Clearance (CLint) (mL/min/g liver)” value came to 27.94 mL/min/g liver. For the same compound, in data set [1] (mouse, liver microsomes, pH 7.4, Mouse, read-out: Half life (t½)), the half-life (in general, the time in which the quantity being followed falls by half) at 0.5 μM is 2.6 min. Take `CCOC(=O)c1ccc(NC2CCCCC2)c(NCc2ccc(Br)cc2)c1` [SRS12-35, ethyl 3-((4-bromobenzyl)amino)-4-(cyclohexylamino)benzoate]: the EC50 (commonly the concentration at which the effect is half-maximal) in the data set with HT-1080 cells (setting [2]) was found to be 44 nM. As for `CCCCCCCCN(CCCCCCCC)c1ccc(C(=O)OCC)cc1N` [SRS12-12, ethyl 3-amino-4-(dioctylamino)benzoate], in the data set with HT-1080 cells (setting [3]), the EC50 stood at 15300 nM. For the compound `CCOC(=O)c1ccc(NC2CCCCCCC2)c(NC)c1` [SRS9-14, ethyl 4-(cyclooctylamino)-3-(methylamino)benzoate], in the data set with HT-1080 cells (setting [3]), the half-maximal effective concentration (EC50) worked out at 70 nM. As for `CCOC(=O)c1ccc(NC2CCC(C(C)(C)C)CC2)c(NCc2ccncc2)c1` (stereo not shown) [SRS13-30, ethyl 4-(4-tert-butylcyclohexylamino)-3-(pyridin-4-ylmethylamino)benzoate], the EC50 in the data set with HT-1080 cells (setting [4]) was 114 nM.

Turning to `CCOC(=O)c1ccc(NC2CCCCC2)c(NCc2ccccn2)c1` [SRS12-46, ethyl 4-(cyclohexylamino)-3-(pyridin-2-ylmethylamino)-benzoate], the EC50 in the data set with HT-1080 cells (setting [4]) is 33 nM. Turning to `CCOC(=O)c1ccc(NC2CCOCC2)c(N)c1` [SRS8-41], the EC50 with HT-1080 cells (setting [5]) worked out at 1450 nM. In the case of `CCCCCCCCCCOC(=O)c1ccc(NC2CCCCC2)c(N)c1` [SRS12-29, decyl 3-amino-4-(cyclohexylamino)benzoate], the EC50 in the data set with HT-1080 cells (setting [6]) was 76 nM. As to `CCOC(=O)c1ccc(NC2CCN(C(=O)OC(C)(C)C)CC2)c(N)c1` [SRS8-47, tert-butyl 4-(2-amino-4-(ethoxycarbonyl)phenylamino)-piperidine-1-carboxylate], the EC50 in the data set on HT-1080 cells (setting [7]) came out at 710 nM. Consider `COC(=O)c1ccc(NC2CCCCC2)c(N)c1` [SRS8-61, methyl 3-amino-4-(cyclohexylamino)benzoate], for which, in the data set on HT-1080 cells (setting [6]), the EC50 turned out to be 150 nM. As for `CCOC(=O)c1ccc(NC2CCCC2)c(N)c1` [SRS8-73], in the data set on HT-1080 cells (setting [8]), the EC50 was determined as 120 nM. As for `CCOC(=O)c1ccc(NC2CCCCC2)c(NCc2ccc(Cl)cc2)c1` [SRS12-49, ethyl 3-(4-chlorobenzylamino)-4-(cyclohexylamino)benzoate], in the data set on HT-1080 cells (setting [2]), the EC50 worked out at 371 nM. `c1ccc(-c2ccccn2)nc1` [2,2-bipyridyl, reference compound]: in the data set with HT-1080 cells (added up to 6 hours after erastin), the “protection when added after erastin” value was “substantial protection from death”. As for `CCOC(=O)c1ccc(NC2CCCCC2)c(NC(=O)OCc2ccccc2)c1` [SRS11-89, ethyl 3-(benzyloxycarbonylamino)-4-(cyclohexylamino)-benzoate], in the data set with HT-1080 cells (setting [3]), the concentration giving a half-maximal response (EC50) was over 10000 nM.

Regarding `CCOC(=O)c1ccc(NC2CCCCC2)c(NCc2ccc(C(F)(F)F)cc2)c1` [SRS12-48, ethyl 4-(cyclohexylamino)-3-(4-(trifluoromethyl)benzylamino)-benzoate], the EC50 in the data set with HT-1080 cells (setting [2]) turned out to be 46 nM. Turning to `CCOC(=O)c1ccc(NC23CC4CC(CC(C4)C2)C3)c(NCc2ccccc2)c1` [SRS15-23, ethyl 3-(benzylamino)-4-(1-adamantylamino)benzoate], the EC50 in the data set on HT-1080 cells (setting [9]) worked out at 23 nM. On to `CCOC(=O)c1ccc(NC2CCCCC2)c(NCc2ccc(OC(C)=O)cc2)c1` [Compound 4MO43, ethyl 4-(cyclohexylamino)-3-(4-(ethanoyloxy)benzylamino)-benzoate], for which the EC50 in the data set on HT-1080 cells (setting [4]) amounted to 47 nM. For the compound `CCOC(=O)c1ccc(NC2CCCCC2)c(NCc2cccc(F)c2)c1` [SRS12-57, ethyl 4-(cyclohexylamino)-3-(3-fluorobenzylamino)benzoate], the 50% effective concentration (EC50) in the data set with HT-1080 cells (setting [2]) is 100 nM.

`CC(=O)OCOC(=O)CN(CC(=O)OCOC(C)=O)c1ccccc1OCCOc1ccccc1N(CC(=O)OCOC(C)=O)CC(=O)OCOC(C)=O` [BAPTA-AM, reference compound]: the “prevention of erastin-induced death” value in the data set on HT-1080 cells is listed as “had no effect on erastin-induced death”. As for `CCOC(=O)c1ccc(NC2CCCCCCCCCCC2)c(N)c1` [SRS9-06, ethyl 3-amino-4-(cyclododecylamino)benzoate], the concentration giving a half-maximal response (EC50) in the data set with HT-1080 cells (setting [10]) is 70 nM. Take `CCOC(=O)c1ccc(NC2CCC(N)CC2)c(N)c1` (stereo not shown) [SRS8-80, ethyl 3-amino-4-(4-aminocyclohexylamino)benzoate]: the EC50 with HT-1080 cells (setting [7]) turned out to be 380 nM. On to `CCOC(=O)c1ccc(NC23CC4CC(CC(C4)C2)C3)c(N)c1` [SRS15-18, ethyl 3-amino-4-(1-adamantylamino)benzoate], for which the EC50 with HT-1080 cells (setting [9]) stood at 87.7 nM.

`CCOC(=O)c1ccc(NC2CCCCC2)c(NCc2ccc3ccccc3c2)c1` [SRS12-51, ethyl 4-(cyclohexylamino)-3-(naphthalen-2-ylmethylamino)-benzoate]: the concentration giving a half-maximal response (EC50) in the data set on HT-1080 cells (setting [4]) is 58 nM. Turning to `CCOC(=O)c1ccc(NC2CCCCC2)c(NCc2ccc(C(=O)OC)cc2)c1` [SRS12-80, ethyl 4-(cyclohexylamino)-3-(4-(methoxycarbonyl)-benzylamino)benzoate], the EC50 in the data set on HT-1080 cells (setting [4]) stood at 33 nM. Turning to `CCCCCCCCNc1ccc(C(=O)OCC)cc1N` [SRS8-94, ethyl 3-amino-4-(octylamino)benzoate], the concentration for a half-maximal effect (EC50) with HT-1080 cells (setting [10]) and in the data set with HT-1080 cells (setting [3]) was 80 nM in each case. Regarding `CCOC(=O)c1ccc(NC2CCCCC2)c(NCc2cc(F)cc(Br)c2)c1` [SRS12-52, ethyl 3-(3-bromo-5-fluorobenzylamino)-4-(cyclohexylamino)-benzoate], the EC50 in the data set with HT-1080 cells (setting [4]) was 105 nM. Turning to `CCOC(=O)c1ccc(NC2CCCCCCC2)c(N(C)C)c1` [SRS9-01, ethyl 4-(cyclooctylamino)-3-(dimethylamino)benzoate], the EC50 in the data set on HT-1080 cells (setting [3]) was determined as 3000 nM. Take `CCOC(=O)c1ccc(NN2CCN(C)CC2)c(N)c1` [SRS8-53]: the 50% effective concentration (EC50) in the data set on HT-1080 cells (setting [5]) was determined as 3600 nM. For the compound `CCOC(=O)c1ccc(NC2CCC(F)(F)CC2)c(N)c1` [SRS8-52, ethyl 3-amino-4-(4,4-difluorocyclohexylamino)benzoate], the concentration giving a half-maximal response (EC50) with HT-1080 cells (setting [7]) was determined as 650 nM.

With `CCOC(=O)c1ccc(NC2CCCCC2)c(NCc2ccccc2[N+](=O)[O-])c1` [SRS12-71, ethyl 4-(cyclohexylamino)-3-(2-nitrobenzylamino)benzoate], the half-maximal effective concentration (EC50) in the data set on HT-1080 cells (setting [2]) came to 126 nM.

On to `CCOC(=O)c1ccc(NC2CCC(C(C)(C)C)CC2)c(N)c1` (single isomer, unassigned) [SRS13-10_F1, Ethyl 3-amino-4-(4-tert-butylcyclohexyl-amino)benzoate], for which the EC50 with HT-1080 cells (setting [8]) turned out to be 44 nM. Still for that read-out and setting: the result for `CCOC(=O)c1ccc(NC2CCCCCC2)c(N)c1` [SRS8-90] reads 130 nM. For `CCOC(=O)c1ccc(NC2CCCCCCC2)c(N)c1` [SRS8-70, ethyl 3-amino-4-(cyclooctylamino)benzoate], the concentration for a half-maximal effect (EC50) in the data set with HT-1080 cells (setting [10]) turned out to be 80 nM; with HT-1080 cells (setting [3]), 69 nM. As to `NOCC(=O)O` [AOA, aminooxyacetic acid, reference compound], the “prevention of erastin-induced death” value in the data set on HT-1080 cells is “rescued both HT-1080 and BJeLR cells from erastin-induced ferroptosis”. `CCOC(=O)c1ccc(NC2CCCCC2)c(NC(C)=O)c1` [SRS11-98, ethyl 4-(cyclohexylamino)-3-ethanamidobenzoate]: the EC50 in the data set on HT-1080 cells (setting [3]) was over 10000 nM. With `CCOC(=O)c1ccc(NC2C3CC4CC(C3)CC2C4)c(NCc2ccccc2)c1` (stereo not shown) [SRS15-20_mono, ethyl 3-(benzylamino)-4-(2-adamantylamino)benzoate], the EC50 in the data set on HT-1080 cells (setting [9]) amounted to 21.7 nM.
